Measured values taken from patent US11326138B2, “Cell culture device and methods of use thereof” (University of Kentucky Research Foundation, priority 2017, dated 2022).

What was measured:
[1] = Incubation of a PDMS surface in contact with rhodamine solution; type: physicochemical; settings: 1.5 wt % solution of rhodamine, over 180 seconds
[2] = Solute diffusion from microfluidic channels into agarose hydrogel (time-lapse fluorescence); type: physicochemical; settings: solution pumped through channels at 25 μL/min; 1.5 wt % agarose
Description: To illustrate a dynamic solute exchange between the hydrogel and the fluid in the microchannels, a liquid suspension of 1.5 wt % agarose in DI water was pipetted into the open reservoir of the microfluidic device. After solidification of the agarose, water containing 1.0 wt % rhodamine was introduced into the inlet using a syringe pump at a constant volumetric flowrate of 25 μL/min. Time-lapse images were taken every 30 seconds using a TI-E Nikon microscope and the fluorescent intensity was measured in the resulting images using NIS-Elements software in order to track the rhodamine diffusion from the channels into the agarose hydrogel.
Water containing 1.0 wt % rhodamine (0.48 kDa) was introduced into the microfluidic channels at a flowrate of 25 μL/min. […] Florescent intensity at two points—one directly beneath a PDMS wall and another centred beneath a microfluidic channel—was tracked over time.

[3] = modelled value for rhodamine in 1.5% agarose hydrogel medium; cited from earlier work

rhodamine
diffusion into PDMS [1]: no detectable diffusion | diffusion from microchannels into adjacent hydrogel [2]: diffused into the adjacent hydrogel | diffusion coefficient D [3]: 4×10^−6 cm^2/sec
